row,melting point,Structure (SMILES)
1,49 to 50 °C,CCN(CC)CCc1c[nH]c2ccc(N(CC)S(=O)(=O)c3ccc4ccccc4c3)cc12
2,204 °C,Cc1cccc2c1COC(=O)N2C1CCN(CC(=O)Nc2ccc3oc4ccccc4c3c2)CC1
3,64 to 66 °C,"O=S(=O)(Nc1ccc2c(ccn2CCCN2CCCCC2)c1)c1ccc(Oc2ccccc2)cc1 [Example 49e, 4-phenoxy-N-(1-(3-(piperidin-1-yl)propyl)-1H-indol-5-yl)benzenesulfonamide]"
4,265 to 268 °C,CCn1c2ccccc2c2cc(NC(=O)CN3CCC(N4C(=O)OCc5cc(Cl)ccc54)CC3)ccc21.Cl
5,88 to 90 °C,"CN1CC=C(c2cn(S(=O)(=O)C3CCCCC3)c3ccc(Cl)cc23)CC1 [Example 2h, 5-Chloro-1-cyclohexanesulfonyl-3-(1-methyl-1,2,3,6-tetrahydropyridine-4-yl)-1H-indole]"
6,111 to 113 °C,CCCCN(CCCC)CCc1c[nH]c2ccc(NS(=O)(=O)c3cccc4ccccc34)cc12
7,156 to 158 °C,"Cc1c(S(=O)(=O)Nc2ccc3c(ccn3CCN3CCCC3)c2)sc2ccc(Cl)cc12 [Example 18e, N-[1-(2-pyrrolidine-1-yl-ethyl)-1H-indole-5-yl]-5-chloro-3-methylbenzo[b]thiophene-2-sulfonamide]"
8,265 to 277 °C,Cl.O=C(CN1CCC(N2C(=O)OCc3cc(Cl)ccc32)CC1)Nc1ccccc1
9,154 to 156 °C,CCN(CC)CCc1c[nH]c2ccc(NS(=O)(=O)c3cccc4c(Cl)cccc34)cc12
10,232 to 239 °C,Cc1cccc2c1N(C1CCN(CC(=O)Nc3ccccc3)CC1)C(=O)OC2.Cl
11,168 to 170 °C,"CCN(CC)CCc1c[nH]c2ccc(NS(=O)(=O)c3cc(Cl)cc(Cl)c3)cc12 [Example 4c, N-[3-(2-diethylaminoethyl)-1H-indol-5-yl]-3,5-dichlorobenzenesulphonamide]"
12,247 to 252 °C,CCn1c2ccccc2c2cc(NC(=O)CN3CCC(N4C(=O)OCc5cc(C)ccc54)CC3)ccc21.Cl
13,78 to 80 °C,"Cc1c(S(=O)(=O)Nc2cccc3c2ccn3CCN(C)C)sc2ccc(Cl)cc12 [Example 1d, N-[1-(2-dimethylaminoethyl)-1H-indole-4-yl]-5-chloro-3-methyl-benzo[b]thiophene-2-sulfonamide]"
14,71 to 73 °C,"Cc1c(S(=O)(=O)Nc2ccc3c(ccn3CCN(C)C)c2)sc2ccc(Cl)cc12 [Example 1e, N-[1-(2-dimethylaminoethyl)-1H-indole-5-yl]-5-chloro-3-methylbenzo[b]thiophene-2-sulfonamide]"
15,85 to 90 °C,O=S(=O)(Nc1ccc2[nH]cc(CCN3CCOCC3)c2c1)c1ccc2ccccc2c1
16,> 225 °C (dec.),Cl.O=C(CN1CCC(N2C(=O)OCc3ccccc32)CC1)Nc1ccc2c(c1)C(O)c1ccccc1-2 (stereo not shown)
17,180 °C,O=C(CN1CCC(N2C(=O)OCc3cccc(Cl)c32)CC1)Nc1ccc2[nH]c3ccccc3c2c1
18,242 to 252 °C,CC(C(=O)Nc1ccc2c(c1)-c1ccccc1C2=O)N1CCC(N2C(=O)OCc3ccccc32)CC1.Cl (stereo not shown)
19,82 to 85 °C,"Cc1c(S(=O)(=O)Nc2cccc3ccn(CCN4CCCC4)c23)sc2ccc(Cl)cc12 [Example 5g, 5-chloro-3-methyl-N-(1-(2-(pyrrolidin-1-yl)ethyl)-1H-indol-7-yl)-benzo[b]thiophen-2-sulfonamide]"
20,230 to 231 °C,Cl.O=C(CN1CCC(N2C(=O)OCc3ccccc32)CC1)Nc1ccc2c(c1)CCC2

row,melting point,Structure (SMILES)
1,50 to 52 °C,"CN(C)CCn1ccc2cc(NS(=O)(=O)c3c(Cl)nc4sccn34)ccc21 [Example 11e, N-[1-(2-dimethylaminoethyl)-1H-indole-5-yl]-6-chloroimidazo[2,1-b]thiazole-5-sulfonamide]"
2,170 °C,CCN(CC)CCc1c[nH]c2ccc(NS(=O)(=O)c3cccc4ccccc34)cc12
3,191 to 193 °C,Cl.Cn1c2ccccc2c2cc(NC(=O)CN3CCC(N4C(=O)OCc5ccccc54)CC3)ccc21
4,286 to 289 °C,Cl.O=C(CN1CCC(N2C(=O)OCc3cc(Cl)ccc32)CC1)Nc1ccc2c(c1)C(O)c1ccccc1-2 (stereo not shown)
5,175 °C (dec.),"CC(=O)c1ccc(S(=O)(=O)Nc2ccc3c(ccn3CCN(C)C)c2)cc1 [Example 21e, N-[1-(2-dimethylaminoethyl)-1H-indole-5-yl]-4-acetylbenzenesulfonamide]"
6,209 to 210 °C,O=C(CN1CCC(N2C(=O)OCc3ccccc32)CC1)Nc1cccc2c1-c1ccccc1C2O (stereo not shown)
7,270 to 273 °C,Cl.O=C(CN1CCC(N2C(=O)OCc3ccccc32)CC1)Nc1cccc2c1-c1ccccc1C2=O
8,114 to 117 °C,"CN(C)CCn1ccc2cc(NS(=O)(=O)c3ccc(Br)cc3)ccc21 [Example 22e, N-[1-(2-dimethylaminoethyl)-1H-indole-5-yl]-4-bromobenzenesulfonamide]"
9,167 to 170 °C,Cc1ccc2c(c1)COC(=O)N2C1CCN(CC(=O)Nc2ccccc2C(=O)c2ccccc2)CC1
10,182 to 183 °C,"Cc1cc2cc(NS(=O)(=O)c3c(Cl)nc4sccn34)ccc2n1CCN(C)C [Example 35e, 6-chloro-N-(1-(2-(dimethylamino)ethyl)-2-methyl-1H-indol-5-yl)imidazo[2,1-b]thiazole-5-sulfonamide]"
11,58 to 64 °C (dec.),CCCN(CCC)CCc1c[nH]c2ccc(NS(=O)(=O)c3ccc4ccccc4c3)cc12
12,172 to 174 °C,"CN(C)CCn1ccc2cc(NS(=O)(=O)c3cccc4c(Cl)cccc34)ccc21 [Example 4e, N-[1-(2-dimethylaminoethyl)-1H-indole-5-yl]-5-chloronaphthalene-1-sulfonamide]"
13,134 to 136 °C,CCN(CC)CCc1c[nH]c2ccc(NS(=O)(=O)c3ccc4ccccc4c3)cc12
14,167 to 169 °C,"Cc1cc2cc(NS(=O)(=O)c3csc4ccccc34)ccc2n1CCN(C)C [Example 40e, N-(1-(2-(dimethylamino)ethyl)-2-methyl-1H-indol-5-yl)benzo[b]thiophene-3-sulfonamide]"
15,264 to 274 °C,Cc1cccc2c1N(C1CCN(CC(=O)Nc3ccc(C(F)(F)F)cc3)CC1)C(=O)OC2.Cl
16,211 to 216 °C,Cl.O=C(CN1CCC(N2C(=O)OCc3ccccc32)CC1)Nc1ccccc1C(=O)c1ccccc1
17,154 to 157 °C,Cc1ccc2c(c1)COC(=O)N2C1CCN(CC(=O)Nc2ccccc2)CC1
18,280 to 282 °C,Cl.O=C(CN1CCC(N2C(=O)OCc3ccccc32)CC1)Nc1ccc2c(c1)C(=O)c1ccccc1C2=O
19,272 to 276 °C,Cl.O=C(CN1CCC(N2C(=O)OCc3ccccc32)CC1)Nc1ccc(Cl)cc1
20,240 to 244 °C,Cc1ccc2c(c1)COC(=O)N2C1CCN(CC(=O)Nc2ccc(C(=O)c3ccccc3)cc2)CC1.Cl

row,melting point,Structure (SMILES)
1,137 to 140 °C,"CN(C)CCn1ccc2cccc(NS(=O)(=O)c3ccc(-c4ccccc4)cc3)c21 [Example 3g, N-[1-(2-dimethylaminoethyl)-1H-indole-7-yl]-4-phenylbenzenesulfonamide]"
2,247 to 249 °C,Cl.O=C1c2ccccc2-c2cc(NC(=O)C(c3ccccc3)N3CCC(N4C(=O)OCc5ccccc54)CC3)ccc21 (stereo not shown)
3,272 to 277 °C,Cl.O=C(CN1CCC(N2C(=O)OCc3ccccc32)CC1)Nc1ccc2c(c1)CCC2=O
4,113 to 118 °C,"CN(C)CCn1ccc2c(NS(=O)(=O)c3cc(Cl)cc(Cl)c3)cccc21 [Example 7d, N-[1-(2-dimethylaminoethyl)-1H-indole-4-yl]-3,5-dichlorobenzenesulfonamide]"
5,61 to 72 °C,"CN(C)CCn1ccc2cc(NS(=O)(=O)c3csc4ccccc34)ccc21 [Example 42e, N-(1-(2-(dimethylamino)ethyl)-1H-indol-5-yl)benzo[b]thiophene-3-sulfonamide]"
6,138 to 140 °C,"CN(C)CCn1ccc2cc(NS(=O)(=O)c3ccc(F)cc3)ccc21 [Example 26e, N-[1-(2-dimethylaminoethyl)-1H-indole-5-yl]-4-fluorobenzenesulfonamide]"
7,229 to 234 °C,Cc1cccc2c1N(C1CCN(CC(=O)Nc3ccc(C#N)cc3)CC1)C(=O)OC2.Cl
8,256 to 259 °C,Cl.O=C(CN1CCC(N2C(=O)OCc3cc(Cl)ccc32)CC1)Nc1ccc(C(=O)c2ccccc2)cc1
9,59 to 61 °C,"O=S(=O)(CCc1cccc2ccccc12)Nc1ccc2c(ccn2CCCN2CCCCC2)c1 [Example 48e, 2-(naphth-1-yl)-N-(1-(3-(piperidin-1-yl)propyl)-1H-indol-5-yl)ethanesulfonamide]"
10,133 to 135 °C,"CCN(CC)CCn1ccc2cc(NS(=O)(=O)c3cccc4ccccc34)ccc21 [Example 30e, N-(1-(2-(diethylamino)ethyl)-1H-indol-5-yl)-naphthalene-1-sulfonamide]"
11,262 to 267 °C,Cl.O=C(CN1CCC(N2C(=O)OCc3cc(Cl)ccc32)CC1)Nc1ccc(Oc2ccccc2)cc1
12,186 to 189 °C,"O=S(=O)(Nc1ccc2c(ccn2CCN2CCCC2)c1)c1cccc2ccccc12 [Example 17e, N-[1-(2-pyrrolidine-1-yl-ethyl)-1H-indole-5-yl]-naphthalene-1-sulfonamide]"
13,146 to 148 °C,Cc1ccc2c(c1)COC(=O)N2C1CCN(CC(=O)Nc2ccccc2Cl)CC1
14,70 to 72 °C,"O=S(=O)(Nc1ccc2c(ccn2CCCN2CCCCC2)c1)c1cc(Cl)c(Cl)s1 [Example 51e, 4,5-dichloro-N-(1-(3-(piperidin-1-yl)propyl)-1H-indol-5-yl)thiophene-2-sulfonamide]"
15,75 °C (dec.),"CN1CC=C(c2cn(S(=O)(=O)C3CCCCC3)c3ccc(N)cc23)CC1 [Example 3h, 5-Amino-1-cyclohexanesulfonyl-3-(1-methyl-1,2,3,6-tetrahydropyridine-4-yl)-1H-indole]"
16,162 to 167 °C,Cc1cccc2c1N(C1CCN(CC(=O)Nc3ccc(Oc4ccccc4)cc3)CC1)C(=O)OC2.Cl
17,179 to 181 °C,"CN(C)CCn1ccc2cc(NS(=O)(=O)c3cccc4ccccc34)ccc21 [Example 3e, N-[1-(2-dimethylaminoethyl)-1H-indole-5-yl]-naphthalene-1-sulfonamide]"
18,237 °C,O=C(CN1CCC(N2C(=O)OCc3cc(F)ccc32)CC1)Nc1ccc2c(c1)-c1ccccc1C2=O

# Source: US20070059364A1, “Active substance combination comprising a compound with npy receptor affinity and a compound with 5-ht6 receptor affinity” (Laboratorios Del Dr. Esteve S.A., priority 2003, published 2007)
